Measured values taken from a melting point compilation (Tetko et al.; mined from patent text by program, amines drawn as free bases though some values may be those of a salt).

melting point [°C]	SMILES
162 to 167	O=C(Nc1ccc(-n2nc(C3CC3)cc2C2CC2)cc1)c1ccc2nccnc2c1
148 to 151	COc1ccc(C=Cc2nc(CCl)co2)cc1
156 to 160	O=C(C1CC=CCC1)N1c2ccccc2CCC1CN1CCN(c2cccc3[nH]ccc23)CC1 (stereo unspecified)
> 250	CCCCc1nc2c(N)nc3cc(-c4ccccc4)ccc3c2n1CC(C)C
259 to 263	Cc1c(-c2ccccc2)c(N2CC[C@H](N(C)C)C2)c2oc(-c3ccccc3N)nc2c1C#N
145 to 146	COc1ccccc1N1CCN(CCC(N)=O)CC1
192 to 194	CN1CCC(c2c[nH]c3ccc(OS(=O)(=O)c4ccccc4)cc23)CC1
183 to 185	CS(=O)(=O)c1ccc(C2=C(c3ccccc3)CN(C3CCCCC3)C2=O)cc1
183 to 185	O=C1c2cc3nnn(Cc4cccc(F)c4)c(=O)c3cc2OC2CCCN12 (stereo unspecified)
119 to 120	Cc1oc2ccc(NC(=O)c3ccccc3)nc2c1CCN(C)C
64 to 66	COc1ccccc1C(C)(O)c1ccco1 (stereo unspecified)
122 to 124	N#Cc1cc2c(cc1O)OCC21C(=O)N(Cc2ccccc2C(F)(F)F)c2ccccc21 (stereo unspecified)
165 to 167	N#Cc1c(-c2cccs2)nn(-c2ccccc2)c1N
186 to 187	COc1cc2c(cc1OC)C(=O)C(=Cc1cccc([N+](=O)[O-])c1)CC2
131	CN(C(=O)c1cc2ccccc2c(-c2ccccc2Cl)n1)C1CCCCC1
159 to 161	CC(=O)Nc1ccc(N2CCN(Cc3ccccc3)CC2)cc1
118 to 120	NC(=O)N(O)Cc1cccc(OCCc2csc(-c3ccc(C(F)(F)F)cc3)n2)c1
124 to 125	CC1(C)CC(c2ccccn2)c2cc(Cl)ccc2O1 (stereo unspecified)
112 to 114	COc1ccc2c(c1)C(=C1CCN(C)CC1)c1ccccc1C=C2
83 to 85	CS(=O)(=O)OCCC(c1ccccc1)c1ccccc1
163 to 164	COc1ccccc1C=C(C=O)C(C=O)=Cc1ccccc1OC
91	COC(=O)c1ccc(OC(=O)c2ccccc2)cc1OC
138	COc1ccc2c(c1)CN(C(=O)OCc1ccccc1)CC(=O)N2
149 to 151	CC(=O)c1ccc2c(c1)CCCN2C(=O)c1ccc(-c2ccc(Cl)cc2)cc1
134 to 135	CCOC(=O)c1c(-c2ccccc2C)c2cc3c(cc2n(C)c1=O)CCC3
219 to 221	O=C(O)COc1ccc2c(-c3ccccc3)noc2c1Cl
85 to 86	COc1ccc(COc2c(C)c(C)c3c(c2C)CC2(CCN(Cc4ccccc4)CC2)O3)cc1
132 to 133	COc1cnc(OC(c2ccccc2)(c2ccccc2)c2ccccc2)cc1OC1CCCC1
265 to 268	COc1ccc2c(n1)C1(CO2)C(=O)Nc2cccc(Br)c21 (stereo unspecified)
136 to 139	Cc1ccc(NC(=O)c2cccc(N(C)C)c2)cc1NC(=O)c1ccccc1O

Second part, the compound before the results:

SMILES	melting point [°C]
O=C(O)CCCCCCCc1ccc(CCNC(=O)c2ccc(Cl)cc2)cc1	145 to 148
O=C(Nc1c(Cl)cccc1Cl)c1cccc2cccnc12	168 to 169
O=C(O)C1=Cc2cc(-c3cccs3)ccc2OC1C(F)(F)F (stereo unspecified)	209 to 212
OC(c1ccccn1)c1cc(C(F)(F)F)nc2c(C(F)(F)F)cccc12 (stereo unspecified)	133 to 135
CC(C)(C)c1cc(CCc2cc(CO)cc(CCc3cc(C(C)(C)C)cc(C(C)(C)C)c3)c2)cc(C(C)(C)C)c1	101
O=C(NCc1ccc(F)cc1)c1cccnc1Oc1ccc(F)cc1	136 to 138
NC(=O)c1cnn(-c2ccc(Cl)cc2Cl)c1C(F)(F)F	191 to 193
CCN(c1ccc(OCc2ccc(OC(F)(F)F)cc2)cc1)C1CCN(c2ccc(OC[C@H]3CCn4cc([N+](=O)[O-])nc4O3)cc2)CC1	95.2 to 97
O=C(O)c1ccc2c(=O)n3nc(C(=O)O)ccc3nc2c1	> 360
COc1nc2cc(C)c(Cl)c(N)c2nc1OC	169 to 170
CN(C)c1cc(C(=O)O)ncn1	250
CCOC(=O)C(C(=O)OCC)c1c(Cl)cnc2c([N+](=O)[O-])cccc12	102
CCCCC(CC)COC(=O)C(C#N)=Cc1ccc(C(=O)O)cc1 (stereo unspecified)	159 to 162
NCC1Cc2cc(C(F)(F)F)cc(-c3cc(F)ccc3F)c2O1 (stereo unspecified)	> 250
CC(=O)Nc1c(C)c2c(c(C)c1[N+](=O)[O-])OC(C)(C)C2	203 to 204
O=P1(c2ccccc2)OCC2(CO1)COP(=O)(c1ccccc1)OC2 (stereo unspecified)	264 to 265
CCn1c(=O)c2c(nc(C=Cc3cccc(C(=O)O)c3)n2C)n(CC)c1=O	260 to 262
CCCn1nc2c(N)nc3ccccc3c2c1CC(C)(C)C(N)=O	224 to 225
O=c1[nH]c2ncc(-c3cccc(-c4nnn[nH]4)c3)nc2n1CC1CCCCC1	248 to 250
CCOC(=O)Cc1cccc(C(=O)c2ccc(Cl)cc2)c1N	101 to 102
C=C1C(O)C(CO)OC1n1ccc(NC(=O)c2ccccc2)nc1=O (stereo unspecified)	> 300

SMILES	melting point [°C]
C/C(=C(\C#N)C(=S)/N=C/N(C)C)N1CCCN(c2ccc3c(c2)OCCO3)CC1	127 to 129
CN1Cc2c(C#Cc3ccccc3)ncn2-c2cccc(Br)c2C1=O	207 to 209
COC(=O)C1=C(C)NC(C#N)=C(C(=O)OC)C1c1cccc2c(=O)c(C)c(-c3ccccc3)oc12 (stereo unspecified)	250
O=C1NC(=O)C2(C=Cc3c2csc3Cl)N1 (stereo unspecified)	224 to 225
c1cc2c(cc1NC1=NCCN1)CCC2	41 to 42
CCN(CC)C(=O)c1cc(-n2c(=O)cc(C(F)(F)F)[nH]c2=O)c(F)cc1Cl	253 to 254
CCOc1cc2c(Cl)c(C#N)cnc2cc1F	165 to 166
CCOC(=O)c1cnn(-c2cccc(Cl)c2)c1Cl	61 to 63
CCC(=S)Nc1c(SC(F)(F)F)c(C#N)nn1-c1c(Cl)cc(C(F)(F)F)cc1SC	153 to 155
C=CCn1c(C)nc2c1CCCC2=O	78
CCOC(=O)c1cc(O)c2cc3c(O)cc(C(=O)OCC)nc3c(N3CCCCCC3)c2n1	301 to 302
O=C(Cn1c(Cl)ccc1Cl)N=C1NCCN1	225
NNC(=O)c1ccccc1OCC(F)(F)F	102 to 104
N#Cc1ccc2c(c1)CCC2=O	123 to 125
O=C1COCC2=C1C(c1ccc(F)c(I)c1)C1=C(CCS1)N2 (stereo unspecified)	> 260
Cn1c(C(F)(F)F)ccc(-c2cc(S(C)=O)c(Cl)cc2F)c1=O (stereo unspecified)	147 to 148
CCCc1nc(C(C)(O)CC)c(C#N)n1C(c1ccccc1)(c1ccccc1)c1ccccc1 (stereo unspecified)	> 120
Oc1ccc(CC(=S)Nc2ncc(-c3ccc(O)cc3)nc2Cc2ccccc2)cc1	101 to 103
CCOC(=O)CS(=O)(=O)Nc1c(C(C)C)cccc1C(C)C	114 to 116
COC(=O)[C@@H]1C[C@H](OC(=O)Nc2ccc([N+](=O)[O-])cc2)C(=O)[C@H]2[C@@]1(C)CC[C@H]1C(=O)O[C@H](c3ccoc3)C[C@]21C	251 to 253
